In EP0219377A1, “Process for the preparation of spherical paracetamol agglomerates and products obtained thereby” (RHONE-POULENC SANTE, priority 1985, dated 1987):

Legend:
[1] = dissolution of suspensions of 1, 2 and 3 g in 200 cm3 of water, stirred at room temperature; format: physicochemical; settings: insoluble filtered, dried and weighed after at most 10 minutes
Excerpt: Les résultats suivants sont obtenus :

[2] = flowability (coulabilité) test on the Hosokawa combined powder tester; format: physicochemical; settings: for Angle de spatule / Angle de talus / Densité (non tassée): combiné Hosokawa
Excerpt: Les propriétés de coulabilité et de dissolution du produit ainsi obtenu sont comparées à celle de paracétamol cristallisé paracétamol broyé (refus à 425 µ < 0,5 %, refus à 250 µ < 5 %) paracétamol broyé super fin (refus à 50 µ < 10 %, refus à 80 µ < 1 %) a) coulabilité : les produits sont testés sur le combiné Hosokawa commercialisé par Hosokawa Europe Ltd, St John's Estate, Tylers Green High Wycombe, Buckinghamshire, England.

[3] = Concentration 5 g/l (1 g in 200 cm3 water)
[4] = Concentration 10 g/l (2 g in 200 cm3 water)
[5] = Concentration 15 g/l (3 g in 200 cm3 water)

Which Pourcentage dissous [1, 3] does the source give for `CC(=O)Nc1ccc(O)cc1` [Aggloméré, paracétamol] here?
The Pourcentage dissous was 100.

And the Pourcentage dissous [1, 4]?
The Pourcentage dissous was 100.

What about the Pourcentage dissous [1, 5] of the same compound?
The Pourcentage dissous was > 98.

And the Angle de spatule [2]?
The Angle de spatule was 41°.

What about the Angle de talus [2] of the same compound?
The Angle de talus was 37°.

And the “Densité (non tassée)” value [2]?
The value was 400 kg/m3.

What about the coulabilité ([2]; result in words, compared with the crystallised and ground products) of the same compound?
The coulabilité was “aussi bonne que le produit cristallisé”.

With `CC(=O)Nc1ccc(O)cc1` [Broyé super fin, paracétamol] as the compound, how does the Pourcentage dissous [1, 3] read?
Its Pourcentage dissous is 100.

And the Pourcentage dissous [1, 4]?
Its Pourcentage dissous is 100.

And the Pourcentage dissous [1, 5]?
The Pourcentage dissous was > 98.

And the Angle de spatule [2]?
Its Angle de spatule is 76°.

And the Angle de talus [2]?
The Angle de talus was 60°.

And the “Densité (non tassée)” value [2]?
Its value is 150 kg/m3.

Which Pourcentage dissous [1, 3] does the source give for `CC(=O)Nc1ccc(O)cc1` [Broyé, paracétamol] here?
The Pourcentage dissous was 100.

And the Pourcentage dissous [1, 4]?
Its Pourcentage dissous is 100.

And the Pourcentage dissous [1, 5]?
The Pourcentage dissous was > 98.

What about the Angle de spatule [2] of the same compound?
Its Angle de spatule is 74°.

And the Angle de talus [2]?
Its Angle de talus is 56°.

And the “Densité (non tassée)” value [2]?
Its value is 280 kg/m3.

What does the source list for `CC(=O)Nc1ccc(O)cc1` [Cristallisé, paracétamol]?
Pourcentage dissous [1, 3]: > 95; Pourcentage dissous [1, 4]: 85; Pourcentage dissous [1, 5]: 83; Angle de spatule [2]: 39°; Angle de talus [2]: 39°; Densité (non tassée) [2]: 700 kg/m3
